{"source": "paper PMC7459655", "about": "(Biomedicines, 2020)", "key": {"[1]": {"test_system": "non-infected erythrocytes"}, "in vitro": {"experiment": "in vitro", "details": "human"}, "[2]": {"test_system": "P. falciparum CQ-resistant strain Dd2", "experiment": "microbe, parasite or virus in culture", "details": "Plasmodium falciparum, DD2, 72 h"}, "[3]": {"test_system": "P. falciparum CQ-sensitive strain 3D7"}, "[4]": {"test_system": "P. falciparum CQ-sensitive strain 3D7", "experiment": "microbe, parasite or virus in culture", "details": "Plasmodium falciparum, 3D7, 72 h"}, "[5]": {"test_system": "P. falciparum CQ-resistant strain Dd2"}, "[6]": {"test_system": "P. falciparum mature gametocytes (male gametogenesis)", "type": "cell-based, Plasmodium falciparum"}, "[7]": {"test_system": "leukemia cell line Nalm-6"}, "[8]": {"test_system": "P. falciparum gametocyte-producing strain NF54 gametocytes", "type": "cell-based, Plasmodium falciparum"}}, "note": "Several values for one entry are separate records, joined by “and”; a condition that tells them apart may be missing. Equal values may be shown once."}
{"smiles": "c1ccc(-c2ccccc2[As]23(OCCO2)OCCO3)cc1", "note": "[As-4]", "values": [{"measurement": "hemolytic effect on erythrocytes (in words)", "setting": "[1]", "value": "no hemolytic effect"}, {"measurement": "CC50", "setting": "in vitro", "value": "> 100", "unit": "µM"}, {"measurement": "IC50", "setting": "[2]", "value": "30.1 ± 2.07", "unit": "µM"}, {"measurement": "SI (ratio of CC50 and IC50)", "setting": "[3]", "value": ">12"}, {"measurement": "antiplasmodial activity against 3D7 (in words)", "setting": "[3]", "value": "lower micromolar ranges"}, {"measurement": "IC50", "setting": "[4]", "value": "8.64 ± 0.963", "unit": "µM"}, {"measurement": "IC90", "setting": "[4]", "value": 77.8, "unit": "µM"}, {"measurement": "SI (ratio of CC50 and IC50)", "setting": "[5]", "value": ">3"}, {"measurement": "antiplasmodial activity against Dd2 compared to 3D7 (in words)", "setting": "[5]", "value": "reduced antiplasmodial activities"}]}
{"smiles": "Cc1ccc2ccccc2c1[As](=O)(O)c1c(C)ccc2ccccc12", "note": "[As-8]", "values": [{"measurement": "hemolytic effect on erythrocytes (in words)", "setting": "[1]", "value": "no hemolytic effect"}, {"measurement": "reduction in exflagellation (numbers of exflagellation centers)", "setting": "[6]", "value": "67% and 87%"}, {"measurement": "CC50", "setting": "in vitro", "value": "> 100", "unit": "µM"}, {"measurement": "IC50", "setting": "[2]", "value": "0.35 ± 0.099", "unit": "µM"}, {"measurement": "IC90", "setting": "[2]", "value": 3.15, "unit": "µM"}, {"measurement": "cytotoxic effect, LDH release (in words)", "setting": "[7]", "value": "No noticeable cytotoxic effect"}, {"measurement": "SI (ratio of CC50 and IC50)", "setting": "[3]", "value": ">66"}, {"measurement": "antiplasmodial activity against 3D7 (in words)", "setting": "[3]", "value": "lower micromolar ranges"}, {"measurement": "IC50", "setting": "[4]", "value": "1.52 ± 0.089", "unit": "µM"}, {"measurement": "IC90", "setting": "[4]", "value": 13.7, "unit": "µM"}, {"measurement": "reduction of gametocyte development (stage IV and V gametocytes)", "setting": "[8]", "value": "about 60%"}, {"measurement": "SI (ratio of CC50 and IC50)", "setting": "[5]", "value": ">286"}, {"measurement": "antiplasmodial activity against Dd2 compared to 3D7 (in words)", "setting": "[5]", "value": "increased activities"}]}
{"smiles": "O[As]12(OC(C(F)(F)F)(C(F)(F)F)c3ccccc31)OC(C(F)(F)F)(C(F)(F)F)c1ccccc12", "note": "[As-5]", "values": [{"measurement": "antiplasmodial activity against 3D7 (in words)", "setting": "[3]", "value": "higher micromolar ranges"}, {"measurement": "IC50", "setting": "[4]", "value": "16.6 ± 3.09", "unit": "µM"}, {"measurement": "IC90", "setting": "[4]", "value": 149, "unit": "µM"}]}
{"smiles": "CCCCCCCCCCCC[As](=O)(CCCCCCCCCCCC)CCCCCCCCCCCC", "note": "[As-11]", "values": [{"measurement": "antiplasmodial activity against 3D7 (in words)", "setting": "[3]", "value": "higher micromolar ranges"}, {"measurement": "IC50", "setting": "[4]", "value": "43 ± 5.7", "unit": "µM"}]}
{"smiles": "CC(C)[C@H]1COC(c2ccccc2[As](c2ccccc2)c2ccccc2)=N1", "note": "[As-10]", "values": [{"measurement": "antiplasmodial activity against 3D7 (in words)", "setting": "[3]", "value": "higher micromolar ranges"}, {"measurement": "IC50", "setting": "[4]", "value": "18.1 ± 3", "unit": "µM"}, {"measurement": "IC90", "setting": "[4]", "value": 163, "unit": "µM"}]}
